Experimental data from patent US9663523B2, “BET protein-inhibiting 5-aryltriazoleazepines” (BAYER PHARMA AKTIENGESELLSCHAFT, priority 2012, dated 2017).

Experiments:
[1] = molecular target: BRD4(1) (amino acids 44-168) (Homo sapiens (Human), UniProt O60885); test: BRD4 binding strength, TR-FRET (HTRF) assay of BRD4(1) / acetylated histone H4 peptide interaction; settings: inhibition of BRD4(1)/Ac-H4 peptide interaction
Excerpt: To assess the BRD4 binding strength of the compounds according to the invention, the ability thereof to inhibit the interaction between BRD4 and acetylated histone H4 in a dose-dependent manner was quantified. For this purpose, a time-resolved fluorescence resonance energy transfer (TR-FRET) assay was used, which measures the binding between N-terminally His6-tagged BRD4(1) (amino acids 44-168) and a synthetic acetylated histone H4 (Ac-H4) peptide with sequence […]-biotin. The recombinant BRD4 protein produced in-house according to Filippakopoulos et al., Cell, 2012, 149:214-231 was expressed in E. coli and purified by means of (Ni-NTA) affinity and (Sephadex G-75) size exclusion chromatography. The Ac-H4 peptide can be purchased, for example, from Biosyntan (Berlin, Germany). […] For this purpose, 100-fold concentrated solutions in DMSO were prepared by serial dilutions (1:3.4) of a 2 mM stock solution into a clear, 384-well microtitre plate (Greiner Bio-One, Frickenhausen, Germany). From this, 50 nl were transferred into a black test plate (Greiner Bio-One, Frickenhausen, Germany). […] This was followed by a 10-minute incubation step at 22° C. for the pre-equilibration of putative complexes between BRD4 and the substances. Subsequently, 3 μl of a solution of 1.67 times the concentration (in assay buffer) consisting of Ac-H4 peptide (83.5 nM) and TR-FRET detection reagents [16.7 nM anti-6His-XL665 and 3.34 nM streptavidin cryptate (both from Cisbio Bioassays, Codolet, France), and 668 mM potassium fluoride (KF)] were added. The mixture was then incubated in the dark at 22° C. for one hour and then at 4° C. overnight. The formation of BRD4/Ac-H4 complexes was determined by the measurement of the resonance energy transfer from the streptavidin-Eu cryptate to the anti-6His-XL665 antibody present in the reaction. […] The ratio of the emissions at 665 nm and at 622 nm was taken as an indicator of the amount of BRD4/Ac-H4 complexes formed.

[2] = test system: MDA-MB-231 cells; test: Cell proliferation (alamarBlue), MDA-MB-231; assay type: cell-based; settings: Homo sapiens, mammary carcinoma cell line, 96 hours incubation
Protocol: (§1) The ability of the compounds according to the invention to inhibit the proliferation of various cell lines was determined.
(§2) Cell viability was determined by means of the alamarBlue® reagent (Invitrogen). The cells were sown at different densities (MOLM-13, LAPC-4, MOLP-8 and MDA-MB-231: 4000 cells/well; B16F10: 400 cells/well) in 100 μl of growth medium on 96-well microtitre plates. After overnight incubation at 37° C., the fluorescence values (CI values) were determined. The plates were then treated with various substance dilutions and incubated at 37° C. for 96 hours (MOLM-13, MDA-MB-231 and B16F10 cells), 120 hours (MOLP-8 cells) or 168 hours (LAPC-4 cells). Subsequently, the fluorescence values were determined (CO values). For the data analysis, the CI values were subtracted from the CO values and the results were compared between cells which had been treated with various dilutions of the substance or only with buffer solution.
(§3) The compounds according to the invention were tested in the cell lines in Table 2, which represent the indications specified by way of example:
(§4) The indications corresponding to the different cell lines can be found in Table 2.

[3] = test system: LAPC-4 cells; test: Cell proliferation (alamarBlue), LAPC-4; assay type: cell-based; settings: Homo sapiens, LAPC4; prostate carcinoma (androgen receptor-positive) cell line, 168 hours incubation
Protocol: as §1
as §2, with “values).” for “values). For the data analysis, the CI values were subtracted from the CO values and the results were compared between cells which had been treated with various dilutions of the substance or only with buffer solution.”
as §3, §4

[4] = test system: B16F10 cells; test: Cell proliferation (alamarBlue), B16F10; assay type: cell-based; settings: Mus musculus, B16-F10; melanoma cell line, 96 hours incubation
Protocol: as §1, §2, §3, §4

[5] = test system: MOLP-8 cells; test: Cell proliferation (alamarBlue), MOLP-8; assay type: cell-based; settings: Homo sapiens, multiple myeloma cell line, 120 hours incubation
Protocol: as §1
as §2, with “values).” for “values). For the data analysis, the CI values were subtracted from the CO values and the results were compared between cells which had been treated with various dilutions of the substance or only with buffer solution.”
as §3, §4

[6] = test system: MOLM-13 cells; test: Cell proliferation (alamarBlue), MOLM-13; assay type: cell-based; settings: Homo sapiens, acute myeloid leukaemia cell line, 96 hours incubation
Protocol: as §1, §2, §3, §4

Row | Compound | IC50 [1] [nM] | IC50 [2] [nM] | IC50 [4] [nM] | IC50 [6] [nM] | IC50 [3] [nM] | IC50 [5] [nM]
1 | Cc1nnc2n1-c1ccccc1C(c1ccc(Cl)cc1)=CC2CC(=O)N1CC2(COC2)C1 (stereo in doubt) [Example 4, (−)-2-[(4R)-6-(4-chlorophenyl)-1-methyl-4H-[1,2,4]triazolo[4,3-a][1]benzazepin-4-yl]-1-(2-oxa-6-azaspiro[3.3]hept-6-yl)ethanone] | 130 | 2370 | 550 | 360 | 660 | 740
2 | CCNC(=O)CC1C=C(c2ccc(Cl)cc2)c2ccccc2-n2c(C)nnc21 (stereo not drawn) [Example 12, 2-[6-(4-chlorophenyl)-1-methyl-4H-[1,2,4]triazolo[4,3-a][1]benzazepin-4-yl]-N-ethylacetamide] | 130 | 480 | 230 | 270 | 80 | –
3 | Cc1nnc2n1-c1ccccc1C(c1ccc(Cl)cc1)=CC2CC(=O)N1CCOCC1 (stereo not drawn) [Example 14, 2-[6-(4-chlorophenyl)-1-methyl-4H-[1,2,4]triazolo[4,3-a][1]-benzazepin-4-yl]-1-(morpholin-4-yl)ethanone] | 310 | 1010 | 410 | 460 | 210 | –
4 | Cc1nnc2n1-c1ccccc1C(c1ccc(Cl)cc1)=CC2CC(=O)N1CC(F)C1 (stereo not drawn) [Example 16, 2-[6-(4-chlorophenyl)-1-methyl-4H-[1,2,4]triazolo[4,3-a][1]benzazepin-4-yl]-1-(3-fluoroazetidin-1-yl)ethanone] | 220 | 1040 | 460 | 530 | 260 | –
5 | Cc1nnc2n1-c1ccccc1C(c1ccc(Cl)cc1)=C[C@H]2CC(=O)N1CC2(CCS2(=O)=O)C1 [Example 19, (−)-2-[(4R)-6-(4-chlorophenyl)-1-methyl-4H-[1,2,4]triazolo[4,3-a][1]benzazepin-4-yl]-1-(1,1-dioxido-1-thia-6-azaspiro[3.3]hept-6-yl)ethanone] | – | 380 | 160 | 150 | 170 | 190
6 | Cc1nnc2n1-c1ccccc1C(c1ccc(Cl)cc1)=CC2CC(=O)Nc1ccc2c(c1)CC(=O)N2 (stereo not drawn) [Example 20, 2-[6-(4-chlorophenyl)-1-methyl-4H-[1,2,4]triazolo[4,3-a][1]benzazepin-4-yl]-N-(2-oxo-2,3-dihydro-1H-indol-5-yl)acetamide] | 240 | 980 | 350 | 540 | 140 | –
7 | Cc1nnc2n1-c1ccccc1C(c1ccc(Cl)cc1)=CC2CC(=O)N1C2CCC1CC(=O)C2 (stereo not drawn) [Example 22] | 340 | 2900 | 840 | 1730 | 210 | –
8 | Cc1nnc2n1-c1ccccc1C(c1ccc(Cl)cc1)=CC2CC(=O)N1CC(Oc2ccccc2)C1 (stereo not drawn) [Example 24, 2-[6-(4-chlorophenyl)-1-methyl-4H-[1,2,4]triazolo[4,3-a][1]benzazepin-4-yl]-1-(3-phenoxyazetidin-1-yl)ethanone] | 220 | 2530 | 1050 | 2940 | 550 | –
9 | Cc1nnc2n1-c1ccccc1C(c1ccc(Cl)cc1)=C[C@H]2CC(=O)N1CC(Oc2ccccc2)C1 [Example 25, (−)-2-[(4R)-6-(4-chlorophenyl)-1-methyl-4H-[1,2,4]triazolo[4,3-a][1]benzazepin-4-yl]-1-(3-phenoxyazetidin-1-yl)ethanone] | 1400 | 1330 | 490 | 1130 | 170 | 590
10 | Cc1nnc2n1-c1ccccc1C(c1ccc(Cl)cc1)=CC2CC(=O)N1CCC(=O)C1 (stereo not drawn) [Example 26, 1-{[6-(4-chlorophenyl)-1-methyl-4H-[1,2,4]triazolo[4,3-a][1]benzazepin-4-yl]acetyl}pyrrolidin-3-one] | 40 | 1360 | 610 | 830 | 310 | 380
11 | Cc1nnc2n1-c1ccccc1C(c1ccc(Cl)cc1)=C[C@H]2CC(=O)N1CCC(=O)C1 [Example 27, (−)-1-{[(4R)-6-(4-chlorophenyl)-1-methyl-4H-[1,2,4]triazolo[4,3-a][1]benzazepin-4-yl]acetyl}pyrrolidin-3-one] | 110 | 710 | 340 | 250 | 180 | –

Further lines, with some results ahead:

Row | IC50 [1] [nM] | IC50 [2] [nM] | IC50 [4] [nM] | IC50 [6] [nM] | Compound | IC50 [3] [nM] | IC50 [5] [nM]
12 | 50 | 380 | 220 | 330 | Cc1nnc2n1-c1ccccc1C(c1ccc(Cl)cc1)=CC2Cc1nc(C2CC2)no1 (stereo in doubt) [Example 37, (−)-(4R)-6-(4-Chlorophenyl)-4-[(3-cyclopropyl-1,2,4-oxadiazol-5-yl)methyl]-1-methyl-4H-[1,2,4]triazolo[4,3-a][1]benzazepine] | 310 | –
13 | 20 | 110 | 60 | 120 | Cc1nnc(CC2C=C(c3ccc(Cl)cc3)c3ccccc3-n3c(C)nnc32)o1 (stereo in doubt) [Example 38, (−)-(4R)-6-(4-chlorophenyl)-1-methyl-4-[(5-methyl-1,3,4-oxadiazol-2-yl)methyl]-4H-[1,2,4]triazolo[4,3-a][1]benzazepine] | 40 | 45
14 | 1400 | > 10000 | 7050 | > 10000 | Cc1nnc2n1-c1ccccc1C(c1ccc(Cl)cc1)=CC2CC(=O)N1CCC2(CCCC2)CC1 (stereo not drawn) [Example 28, 1-(8-azaspiro[4.5]dec-8-yl)-2-[6-(4-chlorophenyl)-1-methyl-4H-[1,2,4]triazolo[4,3-a][1]benzazepin-4-yl]ethanone] | 1200 | 6300
15 | 80 | 1130 | 490 | 850 | Cc1nnc2n1-c1ccccc1C(c1ccc(Cl)cc1)=CC2CC(=O)N1CCS(=O)(=O)C1 (stereo not drawn) [Example 30, 2-[6-(4-chlorophenyl)-1-methyl-4H-[1,2,4]triazolo[4,3-a][1]benzazepin-4-yl]-1-(1,1-dioxido-1,3-thiazolidin-3-yl)ethanone] | 190 | –
16 | 180 | 560 | 220 | 190 | Cc1nnc2n1-c1ccccc1C(c1ccc(Cl)cc1)=C[C@H]2CC(=O)N1CCS(=O)(=O)C1 [Example 31, (−)-2-[(4R)-6-(4-chlorophenyl)-1-methyl-4H-[1,2,4]triazolo[4,3-a][1]benzazepin-4-yl]-1-(1,1-dioxido-1,3-thiazolidin-3-yl)ethanone] | 80 | –
17 | 390 | 2040 | 800 | 1810 | Cc1nnc2n1-c1ccccc1C(c1ccc(Cl)cc1)=CC2CC(=O)N1CC2CCC(C1)O2 (stereo not drawn) [Example 32, 2-[6-(4-chlorophenyl)-1-methyl-4H-[1,2,4]triazolo[4,3-a][1]benzazepin-4-yl]-1-(8-oxa-3-azabicyclo[3.2.1]oct-3-yl)ethanone] | 250 | –
